Experimental data as given in the NIST ThermoML archive (doi:10.1021/je500275j).
± gives the expanded uncertainty stated by the source.

Key:
[1] = for viscosity / mass density: 100 kPa, Liquid; for viscosity: Falling or rolling sphere viscometry; for mass density: Vibrating tube method
[2] = refractive index (Na D-line) (dimensionless); conditions: 293.15 K; 101.33 kPa; Liquid; Standard Abbe refractometry
[3] = xn = mol fraction of the nth substance listed; conditions: 100 kPa, Liquid; for viscosity: Falling or rolling sphere viscometry; for mass density: Vibrating tube method

C1CCC(C2CCCCC2)CC1 [1,1'-bicyclohexyl]
[1]
Conditions | mass density [kg/m3] | viscosity [mPa·s]
293.15 K | 886.39 ± 0.15 | 4.017 ± 0.033
298.15 K | 882.79 ± 0.15 | 3.541 ± 0.029
303.15 K | 879.19 ± 0.15 | 3.145 ± 0.026
308.15 K | 875.6 ± 0.15 | 2.817 ± 0.023
313.15 K | 872.01 ± 0.15 | 2.54 ± 0.022
318.15 K | 868.43 ± 0.15 | 2.302 ± 0.02

Conditions | Normal melting temperature [°C]
[1], Crystal, DTA | 2.60 ± 6

Conditions | refractive index
[2] | 1.4787 ± 0.004

C1CCC(C2CCCCC2)CC1 [1,1'-bicyclohexyl] + CCC1CCCCC1
[3], x1 = 1
Conditions | mass density [kg/m3] | viscosity [mPa·s]
293.15 K | 886.39 ± 0.15 | 4.017 ± 0.033
298.15 K | 882.79 ± 0.15 | 3.541 ± 0.029
303.15 K | 879.19 ± 0.15 | 3.145 ± 0.026
308.15 K | 875.6 ± 0.15 | 2.817 ± 0.023
313.15 K | 872.01 ± 0.15 | 2.54 ± 0.022
318.15 K | 868.43 ± 0.15 | 2.302 ± 0.02

CCCCC1CCCCC1 [butylcyclohexane]
[1]
Conditions | mass density [kg/m3] | viscosity [mPa·s]
293.15 K | 799.6 ± 0.15 | 1.3 ± 0.014
298.15 K | 795.85 ± 0.15 | 1.198 ± 0.013
303.15 K | 792.1 ± 0.15 | 1.109 ± 0.013
308.15 K | 788.33 ± 0.15 | 1.03 ± 0.013
313.15 K | 784.56 ± 0.15 | 0.96 ± 0.012
318.15 K | 780.78 ± 0.15 | 0.898 ± 0.012

Conditions | refractive index
[2] | 1.4399 ± 0.004

CCCCC1CCCCC1 [butylcyclohexane] + C1CCC(C2CCCCC2)CC1
[3], x2 = 0
Conditions | mass density [kg/m3] | viscosity [mPa·s]
293.15 K | 799.6 ± 0.15 | 1.3 ± 0.014
298.15 K | 795.85 ± 0.15 | 1.198 ± 0.013
303.15 K | 792.1 ± 0.15 | 1.109 ± 0.013
308.15 K | 788.33 ± 0.15 | 1.03 ± 0.013
313.15 K | 784.56 ± 0.15 | 0.96 ± 0.012
318.15 K | 780.78 ± 0.15 | 0.898 ± 0.012

CCC1CCCCC1 [ethylcyclohexane]
[1]
Conditions | mass density [kg/m3] | viscosity [mPa·s]
293.15 K | 788.23 ± 0.15 | 0.851 ± 0.012
298.15 K | 784.2 ± 0.15 | 0.796 ± 0.012
303.15 K | 780.16 ± 0.15 | 0.748 ± 0.011
308.15 K | 776.11 ± 0.15 | 0.704 ± 0.011
313.15 K | 772.04 ± 0.15 | 0.665 ± 0.011
318.15 K | 767.96 ± 0.15 | 0.629 ± 0.011

Conditions | refractive index
[2] | 1.4275 ± 0.004

CC1CCCCC1 [methylcyclohexane]
[1]
Conditions | mass density [kg/m3] | viscosity [mPa·s]
293.15 K | 769.58 ± 0.15 | 0.733 ± 0.011
298.15 K | 765.23 ± 0.15 | 0.687 ± 0.011
303.15 K | 760.89 ± 0.15 | 0.645 ± 0.011
308.15 K | 756.53 ± 0.15 | 0.608 ± 0.011
313.15 K | 752.17 ± 0.16 | 0.575 ± 0.011
318.15 K | 747.78 ± 0.16 | 0.545 ± 0.011

Conditions | refractive index
[2] | 1.4175 ± 0.004

CC1CCCCC1 [methylcyclohexane] + C1CCC(C2CCCCC2)CC1
[3], x2 = 0
Conditions | mass density [kg/m3] | viscosity [mPa·s]
293.15 K | 769.58 ± 0.15 | 0.733 ± 0.011
298.15 K | 765.23 ± 0.15 | 0.687 ± 0.011
303.15 K | 760.89 ± 0.15 | 0.645 ± 0.011
308.15 K | 756.53 ± 0.15 | 0.608 ± 0.011
313.15 K | 752.17 ± 0.16 | 0.575 ± 0.011
318.15 K | 747.78 ± 0.16 | 0.545 ± 0.011
